± gives the uncertainty stated by the source.
Assay: xn = mol fraction of the nth substance listed

Q: With `CCCCCC[n+]1ccn(C)c1.O=S(=O)([N-]S(=O)(=O)C(F)(F)F)C(F)(F)F` + CO as the compound, how does the electrical conductivity (298.15 K, 100 kPa, x1 = 0.02978) read?
A: 1.7 ± 0.2 S/m

Q: What about the electrical conductivity (298.15 K, 100 kPa, x1 = 0.04557) of the same compound?
A: 2.1 ± 0.2 S/m

Q: And the electrical conductivity (298.15 K, 100 kPa, x1 = 0.06683)?
A: 2.3 ± 0.2 S/m

Q: And the electrical conductivity (298.15 K, 100 kPa, x1 = 0.09663)?
A: 2.2 ± 0.2 S/m

Q: And the electrical conductivity (298.15 K, 100 kPa, x1 = 0.1426)?
A: 1.9 ± 0.2 S/m

Q: Which results are given for `CCCCCCCC(=O)[O-].c1c[nH+]c[nH]1` + O?
A: viscosity (293.15 K, 101.3 kPa, x2 = 0.3042): 53.53 ± 0.6 mPa·s; viscosity (293.15 K, 101.3 kPa, x2 = 0.4091): 50.43 ± 0.41 mPa·s; viscosity (293.15 K, 101.3 kPa, x2 = 0.6017): 39.83 ± 0.88 mPa·s; viscosity (298.15 K, 101.3 kPa, x2 = 0.5119): 37.4 ± 0.86 mPa·s; viscosity (298.15 K, 101.3 kPa, x2 = 0.7995): 18.69 ± 0.43 mPa·s; viscosity (303.15 K, 101.3 kPa, x2 = 0.3042): 34.6 ± 0.81 mPa·s; viscosity (303.15 K, 101.3 kPa, x2 = 0.6643): 24.26 ± 0.56 mPa·s; viscosity (313.15 K, 101.3 kPa, x2 = 0.1964): 24.17 ± 0.57 mPa·s; viscosity (313.15 K, 101.3 kPa, x2 = 0.8154): 10.93 ± 0.26 mPa·s; viscosity (318.15 K, 101.3 kPa, x2 = 0.0989): 23.17 ± 0.54 mPa·s; viscosity (318.15 K, 101.3 kPa, x2 = 0.3042): 19.22 ± 0.45 mPa·s; viscosity (318.15 K, 101.3 kPa, x2 = 0.6017): 16.16 ± 0.38 mPa·s; viscosity (318.15 K, 101.3 kPa, x2 = 0.8154): 9.92 ± 0.24 mPa·s; viscosity (323.15 K, 101.3 kPa, x2 = 0): 25.33 ± 0.61 mPa·s; viscosity (323.15 K, 101.3 kPa, x2 = 0.0989): 19.77 ± 0.46 mPa·s; viscosity (323.15 K, 101.3 kPa, x2 = 0.3042): 16.85 ± 0.4 mPa·s; viscosity (323.15 K, 101.3 kPa, x2 = 0.8154): 9.3 ± 0.23 mPa·s

Q: What does the source list for `CC(C)C[C@H](N)C(=O)[O-].CCCC[P+](CCCC)(CCCC)CCCN` + O?
A: electrical conductivity (333.15 K, 101 kPa, x2 = 0): 0.0413 ± 0.00083 S/m; viscosity (333.15 K, 101 kPa, x2 = 0): 130.5 ± 7.4 mPa·s

Q: For `O=C1c2ccccc2C(=O)C1(O)O` + CCCC[N+](CCCC)(CCCC)CCCC.O=S(=O)([O-])O, which electrical conductivity (293.15 K, 100 kPa, x2 = 0.571) is on record?
A: 2.5e-06 ± 3e-07 S/m

Q: And the electrical conductivity (298.15 K, 100 kPa, x2 = 0.571)?
A: 7.8e-06 ± 8e-07 S/m

Q: What about the electrical conductivity (303.15 K, 100 kPa, x2 = 0.571) of the same compound?
A: 2.49e-05 ± 2.5e-06 S/m

Q: What about the electrical conductivity (308.15 K, 100 kPa, x2 = 0.571) of the same compound?
A: 6.58e-05 ± 6.6e-06 S/m

Q: What about the electrical conductivity (313.15 K, 100 kPa, x2 = 0.571) of the same compound?
A: 0.000153 ± 1.5e-05 S/m

Q: What about the electrical conductivity (318.15 K, 100 kPa, x2 = 0.571) of the same compound?
A: 0.000325 ± 3.2e-05 S/m

Q: What about the electrical conductivity (323.15 K, 100 kPa, x2 = 0.571) of the same compound?
A: 0.000614 ± 6.1e-05 S/m

Q: And the electrical conductivity (328.15 K, 100 kPa, x2 = 0.571)?
A: 0.00109 ± 0.00011 S/m

Q: And the viscosity (328.15 K, 100 kPa, x2 = 0.571)?
A: 27000 mPa·s

Q: What about the electrical conductivity (333.15 K, 100 kPa, x2 = 0.571) of the same compound?
A: 0.00183 ± 0.00018 S/m

Q: And the viscosity (343.15 K, 100 kPa, x2 = 0.571)?
A: 6500 ± 3200 mPa·s

Q: What does the source list for `CCCCCC[n+]1ccn(C)c1.[I-]` + [I-].[Li+]?
A: electrical conductivity (288.1 K, 101 kPa, frequency 0.03 MHz, x1 = 0.59): 0.000226 ± 1.4e-05 S/m; electrical conductivity (293 K, 101 kPa, frequency 0.03 MHz, x1 = 0.59): 0.000466 ± 2.8e-05 S/m; electrical conductivity (298.1 K, 101 kPa, frequency 0.03 MHz, x1 = 0.59): 0.000891 ± 5.3e-05 S/m; viscosity (298.1 K, 101 kPa, x1 = 0.59): 15200 ± 1900 mPa·s; viscosity (303 K, 101 kPa, x1 = 1): 1175 ± 100 mPa·s; electrical conductivity (308.1 K, 101 kPa, frequency 0.03 MHz, x1 = 0.59): 0.0032 ± 0.00019 S/m; viscosity (308.1 K, 101 kPa, x1 = 0.59): 4263 ± 450 mPa·s; electrical conductivity (313 K, 101 kPa, frequency 0.03 MHz, x1 = 0.59): 0.00537 ± 0.00032 S/m; electrical conductivity (318.1 K, 101 kPa, frequency 0.03 MHz, x1 = 0.59): 0.00863 ± 0.00052 S/m; viscosity (328.1 K, 101 kPa, x1 = 1): 213 ± 15 mPa·s; viscosity (368.1 K, 101 kPa, x1 = 1): 38.5 ± 2.5 mPa·s

Q: For `CCCCCC[n+]1ccn(C)c1.O=S(=O)([N-]S(=O)(=O)C(F)(F)F)C(F)(F)F` + O=C1CCCO1, which electrical conductivity (293.15 K, 100 kPa, frequency 0.005 MHz, x2 = 0.2973) is on record?
A: 0.296 ± 0.009 S/m

Q: And the electrical conductivity (293.15 K, 100 kPa, frequency 0.005 MHz, x2 = 0.9001)?
A: 1.11 ± 0.034 S/m

Q: And the electrical conductivity (293.15 K, 100 kPa, frequency 0.005 MHz, x2 = 0.9493)?
A: 0.746 ± 0.025 S/m

Q: What about the electrical conductivity (298.15 K, 100 kPa, frequency 0.005 MHz, x2 = 0.1076) of the same compound?
A: 0.261 ± 0.008 S/m

Q: And the electrical conductivity (298.15 K, 100 kPa, frequency 0.005 MHz, x2 = 0.9493)?
A: 0.819 ± 0.028 S/m

Q: And the electrical conductivity (303.15 K, 100 kPa, frequency 0.005 MHz, x2 = 0)?
A: 0.273 ± 0.008 S/m

Q: And the electrical conductivity (303.15 K, 100 kPa, frequency 0.005 MHz, x2 = 0.4956)?
A: 0.657 ± 0.02 S/m

Q: And the electrical conductivity (303.15 K, 100 kPa, frequency 0.005 MHz, x2 = 0.9001)?
A: 1.34 ± 0.041 S/m

Q: What about the electrical conductivity (308.15 K, 100 kPa, frequency 0.005 MHz, x2 = 0) of the same compound?
A: 0.33 ± 0.01 S/m

Q: And the electrical conductivity (308.15 K, 100 kPa, frequency 0.005 MHz, x2 = 0.1076)?
A: 0.387 ± 0.012 S/m

Q: And the electrical conductivity (308.15 K, 100 kPa, frequency 0.005 MHz, x2 = 0.2973)?
A: 0.514 ± 0.016 S/m

Q: And the electrical conductivity (308.15 K, 100 kPa, frequency 0.005 MHz, x2 = 0.9001)?
A: 1.45 ± 0.044 S/m

Q: What about the electrical conductivity (313.15 K, 100 kPa, frequency 0.005 MHz, x2 = 0.1076) of the same compound?
A: 0.459 ± 0.014 S/m

Q: What about the electrical conductivity (313.15 K, 100 kPa, frequency 0.005 MHz, x2 = 0.2973) of the same compound?
A: 0.596 ± 0.018 S/m

Q: And the electrical conductivity (313.15 K, 100 kPa, frequency 0.005 MHz, x2 = 0.6996)?
A: 1.31 ± 0.04 S/m

Q: And the electrical conductivity (313.15 K, 100 kPa, frequency 0.005 MHz, x2 = 0.8456)?
A: 1.61 ± 0.048 S/m

Q: And the electrical conductivity (318.15 K, 100 kPa, frequency 0.005 MHz, x2 = 0.2973)?
A: 0.687 ± 0.021 S/m

Q: What about the electrical conductivity (318.15 K, 100 kPa, frequency 0.005 MHz, x2 = 0.8456) of the same compound?
A: 1.73 ± 0.052 S/m

Q: What about the electrical conductivity (318.15 K, 100 kPa, frequency 0.005 MHz, x2 = 0.9493) of the same compound?
A: 1.11 ± 0.038 S/m

Q: And the electrical conductivity (323.15 K, 100 kPa, frequency 0.005 MHz, x2 = 0)?
A: 0.553 ± 0.017 S/m

Q: And the electrical conductivity (323.15 K, 100 kPa, frequency 0.005 MHz, x2 = 0.1076)?
A: 0.624 ± 0.019 S/m

Q: And the electrical conductivity (323.15 K, 100 kPa, frequency 0.005 MHz, x2 = 0.2973)?
A: 0.788 ± 0.024 S/m

Q: And the electrical conductivity (323.15 K, 100 kPa, frequency 0.005 MHz, x2 = 0.8001)?
A: 1.85 ± 0.056 S/m

Q: What about the electrical conductivity (323.15 K, 100 kPa, frequency 0.005 MHz, x2 = 0.8456) of the same compound?
A: 1.88 ± 0.057 S/m

Q: Which viscosity (303.15 K, 100 kPa, x2 = 0.01565, x3 = 0.9603) does the source give for `CCC[P+](c1ccccc1)(c1ccccc1)c1ccccc1.[Br-]` + O=S=O + OCCO here?
A: 20.6 ± 0.9 mPa·s

Q: And the viscosity (313.15 K, 100 kPa, x2 = 0.01166, x3 = 0.9642)?
A: 17 ± 0.7 mPa·s

Q: What about the viscosity (323.15 K, 100 kPa, x2 = 0.009018, x3 = 0.9668) of the same compound?
A: 14.1 ± 0.6 mPa·s

Q: What about the viscosity (333.15 K, 100 kPa, x2 = 0.007838, x3 = 0.968) of the same compound?
A: 11.6 ± 0.5 mPa·s

Q: What about the viscosity (343.15 K, 100 kPa, x2 = 0.006951, x3 = 0.9688) of the same compound?
A: 10.5 ± 0.4 mPa·s

Q: With `CCCCCC[n+]1ccn(C)c1.O=S(=O)([N-]S(=O)(=O)C(F)(F)F)C(F)(F)F` + CC(C)=O as the compound, how does the electrical conductivity (298.15 K, 100 kPa, x1 = 0.0527) read?
A: 2.6 ± 0.3 S/m

Q: What about the electrical conductivity (298.15 K, 100 kPa, x1 = 0.07996) of the same compound?
A: 3.1 ± 0.3 S/m

Q: And the electrical conductivity (298.15 K, 100 kPa, x1 = 0.1149)?
A: 3.1 ± 0.3 S/m

Q: What about the electrical conductivity (298.15 K, 100 kPa, x1 = 0.163) of the same compound?
A: 2.4 ± 0.2 S/m

Q: What about the electrical conductivity (298.15 K, 100 kPa, x1 = 0.2325) of the same compound?
A: 2 ± 0.2 S/m
